In patent US9845323B2, “2-(1,3,4-oxadiazol-2-yl)-7-oxo-1,6-diazabicyclo[3.2.1 ]octane derivatives and their use as antibacterial agents” (WOCKHARDT LIMITED, priority 2014, dated 2017):
≈ marks a conversion by molar mass, not a printed value. Like-named read-outs stand apart in the source and are kept apart here.

Legend:
[1] = tested on: E. coli NCTC 13353 (CTX-M15, OXA-1); test: Agar dilution MIC (CLSI), compound alone; type: cell-based; conditions: E. coli NCTC 13353 (CTX-M15, OXA-1), compound alone, Table 2
Procedure: (§1) The biological activity of representative compounds according to the invention against various bacterial strains was investigated. In a typical study, overnight grown bacterial cultures were diluted appropriately and inoculated on the agar media containing doubling dilutions of the test compounds. Observations for growth or no growth was performed after 16-20 hours of incubation at 35±2° C. in the ambient air. The overall procedure was performed as per Clinical and Laboratory Standards Institute (CLSI) recommendations, (Clinical and Laboratory Standards Institute (CLSI), Performance Standards for Antimicrobial Susceptibility Testing, 20th Informational Supplement, M 07-A9, Volume 32, No. 2, 2012). Molten Mueller Hinton Agar (BD, USA) containing serial dilutions of each antibacterial agent were poured on to the plates and allowed to solidify. Appropriate suspensions from the freshly grown cultures were prepared in normal saline so that about 10^4 CFU/spot of the organism was delivered on to the drug containing agar plates using automated multipoint inoculator (Mast, UK). The plates were incubated in Biochemical oxygen demand (BOD) incubator at 37° C. for 18 hours and then examined for growth.

[2] = tested on: K. pneumoniae H521 (KPC, SHV, TEM); test: Agar dilution MIC (CLSI), compound alone; type: cell-based; conditions: K. pneumoniae H521 (KPC, SHV, TEM), compound alone, Table 2
Procedure: as §1

[3] = tested on: K. Pneomoniae S48 (NDM, SHV, TEM); test: Agar dilution MIC (CLSI), compound alone; type: cell-based, K. pneumoniae; conditions: K. Pneomoniae S48 (NDM, SHV, TEM), compound alone, Table 2
Procedure: as §1

[4] = molecular target: Class A beta-lactamase SHV 18 (K. pneumoniae ATCC 700603) (Klebsiella pneumoniae, UniProt P0AD64); test: Beta-lactamase enzyme inhibition (Nitrocefin, crude enzyme); type: biochemical
Class A beta-lactamase SHV 18 (K. pneumoniae ATCC 700603), sequence (P0AD64 22-286 limits assumed): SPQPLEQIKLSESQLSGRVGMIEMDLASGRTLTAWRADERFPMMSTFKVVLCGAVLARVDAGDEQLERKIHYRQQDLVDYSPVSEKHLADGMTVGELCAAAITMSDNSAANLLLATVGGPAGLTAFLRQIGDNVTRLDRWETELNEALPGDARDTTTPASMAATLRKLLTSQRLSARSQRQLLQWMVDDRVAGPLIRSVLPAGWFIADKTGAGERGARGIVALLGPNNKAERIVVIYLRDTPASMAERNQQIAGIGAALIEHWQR
Procedure: (§2) Absorbance was measured at 485 nm by UV-spectrophotometer. The IC50 was calculated by plotting absorbance against concentration through Sigmoidal dose response curve using Graph Pad software.

[5] = tested on: Class C beta-lactamase CMY/DHA (E. coli M50); test: as above; type: biochemical; conditions: Nitrocefin 100 μM
Procedure: as §2

[6] = molecular target: T1, Class D beta-lactamase OXA 23 (A baumannii NCTC 13301) (Acinetobacter baumannii, UniProt Q9L4P2); test: as above; type: biochemical; conditions: A baumannii NCTC 13301 (OXA 23), Nitrocefin 100 μM
T1 construct: preincubated mixture of crude enzyme and the compounds; endogenous in cells; host or cells: A. baumannii NCTC 13301 (crude enzyme preparation)
T1 sequence (Q9L4P2 18-273): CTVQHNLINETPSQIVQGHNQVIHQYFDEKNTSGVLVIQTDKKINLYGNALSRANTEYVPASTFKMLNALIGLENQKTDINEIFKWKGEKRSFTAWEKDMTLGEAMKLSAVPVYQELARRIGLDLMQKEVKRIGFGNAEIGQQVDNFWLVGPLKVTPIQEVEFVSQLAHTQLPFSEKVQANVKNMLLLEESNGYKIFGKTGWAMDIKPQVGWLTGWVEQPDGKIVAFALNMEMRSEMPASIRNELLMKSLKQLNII
Procedure: as §2

Citrobactor spp 58 MP = test: Agar dilution MIC of Ceftazidime, alone or with fixed 4 μg/ml compound; type: cell-based
Procedure: (§3) Agar dilution MIC was carried out in Muller Hinton Agar (Difco, USA) according to the recommendations of CLSI (M07-A9). In short, the plates were poured with a range of doubling increasing concentration of Ceftazidime and fixed 4 μg/ml compound according to invention containing MHA. The freshly overnight grown cultures were diluted in physiological saline to deliver per spot 10^4 CFU. The plates were inoculated with a multipoint inoculator (Mast, UK) and incubated at 35° C. for 18 hours. […] Table-5 provides the result of combination MIC results.

E. coli M 50 = test: as above; type: cell-based
Procedure: as §3

E. coli NCTC 13353 = test: as above; type: cell-based
Procedure: as §3

[7] = tested on: K. pneumoniae ATCC 700606; test: as above; type: cell-based
Procedure: as §3

K. pneumoniae H521 = test: as above; type: cell-based
Procedure: as §3

K. pneumoniae B 77 = test: Agar dilution MIC (CLSI), compound alone; type: cell-based; conditions: Klebsiella pneumoniae, B77; K. pneumoniae B 77; Table 3; read-out: MIC
Procedure: as §1

[8] = Escherichia coli, NCTC13353, read-out: MIC
[9] = Klebsiella pneumoniae, read-out: MIC
[10] = read-out: Beta-lactamase enzyme inhibition IC50, K. pneumoniae ATCC 700603 (SHV 18), Nitrocefin 100 μM
[11] = Ceftazidime + compound fixed at 4 mcg/ml

## O=C1N2C[C@@H](CC[C@H]2c2nnc(CCCc3ccccc3)o2)N1OS(=O)(=O)O [Example 7, (2S,5R)-sulfuric acid mono-{2-[5-(3-phenyl-propyl)-[1,3,4]-oxadiazol-2-yl]-7-oxo-1,6-diaza-bicyclo[3.2.1]oct-6-yl} ester]
[1]; [8]
  MIC: > 32 µg/mL
[2]; [9]
  MIC: > 32 µg/mL
[3]; [9]
  MIC: 32 µg/mL (≈ 78.3 µM)
[4]; [10]
  IC50: 40 nM
[5]
  IC50: 4 nM
[6]
  IC50: 115 nM

## CC(C)(O/N=C(\C(=O)N[C@@H]1C(=O)N2C(C(=O)[O-])=C(C[n+]3ccccc3)CS[C@H]12)c1csc(N)n1)C(=O)O [Ceftazidime, ceftazidime, reference compound]
Citrobactor spp 58 MP; Ceftazidime alone, Table 5
  MIC of Ceftazidime alone: 16 µg/mL
E. coli M 50; Ceftazidime alone, Table 5
  MIC of Ceftazidime alone: > 32 µg/mL
E. coli NCTC 13353; Ceftazidime alone, Table 5
  MIC of Ceftazidime alone: 32 µg/mL
[7]; Ceftazidime alone, Table 5
  MIC of Ceftazidime alone: 32 µg/mL
K. pneumoniae H521; Ceftazidime alone, Table 5
  MIC of Ceftazidime alone: > 32 µg/mL

## O=C1N2C[C@@H](CC[C@H]2c2nnc(CCc3ccccc3)o2)N1OS(=O)(=O)O [Example 6, (2S,5R)-sulfuric acid mono-[2-(5-phenyl-ethyl-[1,3,4]-oxadiazol-2-yl)-7-oxo-1,6-diaza-bicyclo[3.2.1]oct-6-yl] ester]
[1]
  MIC: >32 µg/mL
[2]
  MIC: >32 µg/mL
[3]
  MIC: >32 µg/mL
[4]; K. pneumoniae ATCC 700603 (SHV 18), Nitrocefin 100 μM, read-out: Beta-lactamase enzyme inhibition IC50
  IC50: 32 nM
[5]
  IC50: 4 nM
[6]
  IC50: 220 nM
Citrobactor spp 58 MP; [11]
  MIC of Ceftazidime in combination with the compound: 4 µg/mL
E. coli M 50; [11]
  MIC of Ceftazidime in combination with the compound: 8 µg/mL
E. coli NCTC 13353; [11]
  MIC of Ceftazidime in combination with the compound: 0.5 µg/mL
[7]; [11]
  MIC of Ceftazidime in combination with the compound: 8 µg/mL
K. pneumoniae H521; [11]
  MIC of Ceftazidime in combination with the compound: > 32 µg/mL

## O=C1N2C[C@@H](CC[C@H]2c2nnc(C(c3ccccc3)c3ccccc3)o2)N1OS(=O)(=O)O [Example 8, (2S,5R)-sulfuric acid mono-[2-(5-benzhydryl-[1,3,4]-oxadiazol-2-yl)-7-oxo-1,6-diaza-bicyclo[3.2.1]oct-6-yl] ester]
[1]; [8]
  MIC: > 32 µg/mL
[2]; [9]
  MIC: > 32 µg/mL
[3]; [9]
  MIC: > 32 µg/mL
[4]; [10]
  IC50: 37 nM
[5]
  IC50: 17 nM
[6]
  IC50: 8 nM

## NC(=O)[C@@H]1CC[C@@H]2CN1C(=O)N2OS(=O)(=O)O [Avibactam, avibactam, reference compound]
K. pneumoniae B 77
  MIC: 32 µg/mL (≈ 121 µM)
[4]; [10]
  IC50: 98 nM
[5]
  IC50: 146 nM

## O=C1N2C[C@@H](CC[C@H]2c2nnc(CC3CNC3)o2)N1OS(=O)(=O)O [Example 1, (2S,5R)-Sulfuric acid mono-[2-(5-azetidin-3-ylmethyl-1,3,4-oxadiazol-2-yl)-7-oxo-1,6-diaza-bicyclo[3.2.1]oct-6-yl]ester]
[1]; [8]
  MIC: > 32 µg/mL
[2]; [9]
  MIC: > 32 µg/mL
[3]; [9]
  MIC: > 32 µg/mL
[4]; [10]
  IC50: 27 nM
[5]
  IC50: 402 nM
[6]
  IC50: 3950 nM
